{"source": "patent US20240358721A1", "about": "“GASDERMIN-D INHIBITORS AND USES THEREOF FOR TREATING PULMONARY VASO-OCCLUSION” (UNIVERSITY OF PITTSBURGH-OF THE COMMONWEALTH SYSTEM OF …, priority 2021, published 2024)", "key": {"SCD-Selp−/− mice [1]": {"test_system": "SCD-Selp−/− mice", "assay": "qFILM assessment of P-selectin-independent pulmonary vaso-occlusion in SCD-Selp−/− mice IV administered oxy-Hb", "format": "in vivo, mouse", "conditions": "IV 10 μmole/kg oxy-Hb with 10 mg/kg inhibitor vs oxy-Hb alone", "source_text": "Quantitative fluorescence intravital lung microscopy (qFILM) was used to assess the absence or presence of platelet-neutrophil aggregate mediated pulmonary vaso-occlusion. Pulmonary microcirculation (pseudo-colored purple), neutrophils (red) and platelets (pseudo-colored green) were labeled in vivo by IV administration of FITC dextran, AF546-anti-Ly6G Ab and V450-anti-CD49b Ab, respectively. […] White arrows denote the direction of blood flow within the pulmonary arterioles. Alveoli are marked with asterisks. Scale bars 20 μm. The diameter of pulmonary arteriole in B-E is ˜22 μm, 32 μm, 31.5 μm, and 31 μm, respectively. […] Refer Online Data Supplement for details. […] The data for mice with SCD IV administered 10 oxy-Hb (n=5 mice; 75 FOVs) are included as black bars in FIGS. 1N and 1O for relative comparison. qFILM FOV size ˜65 536 μm^2. Data represent mean ±SE and are compared using Student t test. *P<0.05 (FIG. 1P) Schematic showing the main findings of the study. The sterile inflammatory milieu (DAMPs, IFN-I signaling, and ROS) in SCD promotes caspase-4 (humans) or caspase-11 (mouse)-dependent cleavage of neutrophil GSDMD into the active form GSDMD-NT, leading to the shedding of NETs in the liver microcirculation. Once shed, these NETs are carried by the blood as cNETs to the lung, where they promote neutrophil-platelet aggregation in the pulmonary arterioles, leading to PVO and lung injury (acute chest syndrome).\nSCD-Selp^−/− mice were IV administered 10 μmole/kg oxy-Hb (10 oxy-Hb) without or with 10 mg/kg GSDMD inhibitor (Disulfiram). Quantitative fluorescence intravital lung microscopy (qFILM) was used to assess the absence or presence of pulmonary vasoocclusion using the same experimental scheme described in FIG. 1A. Pulmonary vasoocclusions (PVOs) were compared between treatment groups using following two parameters: Number of PVOs per Field of View (#PVOs/FOV) and number of large PVOs (with area>1000 μm^2) per FOV. […] The data for SCD mice IV administered 10 oxy-Hb (n=5 mice; 75 FOVs) is included as black bars in FIGS. 4A and 4B for relative comparison. FOV size˜65,536 μm^2. […]\n(§1) (FIG. 5A) Experimental scheme: SCD or SCD-Selp^−/− mice were IV administered 10 μmole/kg oxy-Hb (10 oxy-Hb) without or with 10 mg/kg GSDMD inhibitors LDC75591 or Disulfiram. In FIGS. 5C-5D, venous blood was processed to generate PPP and cNETs detected in PPP using Imaging Flow Cytometry. Imaging Flow Cytometry data was quantified to estimate concentration of cNETs (#cNETs/μl of plasma). In FIGS. 5B, and 5E-5F, quantitative fluorescence intravital lung microscopy (qFILM) was used to detect arrival of circulating NETs (cNETs) within the lung microcirculation. Number of cNETs entering per FOV over a 1-minute duration (#cNETs/FOV/min) were quantified. […]"}, "SCD-Selp−/− mice [2]": {"test_system": "SCD-Selp−/− mice", "assay": "qFILM detection of circulating NETs arriving in the lung microcirculation, SCD-Selp−/− mice", "format": "in vivo, mouse", "conditions": "IV 10 μmole/kg oxy-Hb with 10 mg/kg inhibitor vs oxy-Hb alone, significant", "description": "as §1, with “quantified. In FIGS. 5G-5J, qFILM was used to assess the absence or presence of pulmonary vaso-occlusion using the experimental strategy described in FIG. 1A. Pulmonary vaso-occlusions (PVOs) were compared between treatment groups using following two parameters: Number of PVOs per Field of View (#PVOs/FOV) and number of large PVOs (with area>1000 μm^2) per FOV.” for “quantified.”\nQuantitative fluorescence intravital lung microscopy (qFILM) has been used widely for in vivo assessment of pulmonary vasoocclusion in mice with SCD [Bennewitz M F et al., (2017); Vats R, Brzoska T, Bennewitz M F, et al. (2020); Vats R, Tutuncuoglu E, Pradhan-Sundd T, Tejero J, Shaw G D, Sundd P. (2020); Bennewitz M F, Tutuncuoglu E, Gudapati S, et al. (2020)] […]"}}, "data": [{"smiles": "CCN(CC)C(=S)SSC(=S)N(CC)CC", "note": "[Disulfiram, disulfiram]", "values": [{"measurement": "number of large PVOs (with area>1000 μm^2) per FOV", "setting": "SCD-Selp−/− mice [1]", "value": "absent"}, {"measurement": "Number of PVOs per Field of View (#PVOs/FOV)", "setting": "SCD-Selp−/− mice [1]; 10 mg/kg", "value": "significantly reduced"}, {"measurement": "#cNETs/FOV/min in the lung, less than 10 oxy-Hb alone", "setting": "SCD-Selp−/− mice [2]", "value": 4, "unit": "folds"}]}]}
